Test results reported in article PMC5934680, “A new class of antibacterials, the imidazopyrazinones, reveal structural transitions involved in DNA gyrase poisoning and mechanisms of resistance” (Nucleic Acids Research, 2018).

Experiments:
[1] = target: E. coli DNA gyrase GyrA mutant EcS83L (Escherichia coli, UniProt P0AES4+P0AES6, S83L); assay: Supercoiling inhibition assay, GyrA EcS83L mutant gyrase; assay type: biochemical; conditions: for Resistance of EcS83L mutant enzyme in supercoiling inhibition: EcS83L compared to wt
Experimental: (§1) Supercoiling reactions were carried out as described previously ([24]) with minor adjustments. A total of 500 ng of relaxed pBR322 plasmid was used as a substrate for each 30 μl reaction. The amount of DNA gyrase (A2B2) added was normalized by testing various dilutions of the stock (A2B2 containing 0.5 mg/ml of each subunit) without compound. The amount sufficient to supercoil 50% of the substrate was then used for the testing of compounds. See Supplementary Figure S1 for details. This ensured a limiting amount of enzyme for every mutant tested. The individual gyrase subunits were either prepared in the lab as described previously ([25]) or purchased from Inspiralis.
(§2) The activity of tricyclic and bicyclic IPYs (Figure 1) was tested in a supercoiling inhibition assay (Table 1) on wild-type (wt) E. coli DNA gyrase and GyrA mutants EcS83L (SaS84), EcD87A (SaE88) and EcD82N (SaD83). These residues are located in the ‘Quinolone-Resistance-Determining-Region’, frequently found mutated in resistant clinical isolates ([18],[35–38]). Based on the structures solved of FQs bound to DNA gyrase and topo IV, it has been established that both residues EcS83 and EcD87 are involved in a water–metal–ion bridge that is important for the stabilization of the ternary complex, explaining the resistance to FQs observed when these residues are mutated ([15–16],[23],[29],[39]).

[2] = target: T1, wild-type E. coli DNA gyrase (Escherichia coli, UniProt P0AES4+P0AES6); assay: biochemical; conditions: relaxed pBR322 substrate, read-out: Supercoiling IC50
Experimental: as §1

[3] = target: E. coli DNA gyrase GyrA mutant EcD82N (Escherichia coli, UniProt P0AES4+P0AES6, D82N); assay: Supercoiling inhibition assay, GyrA EcD82N mutant gyrase; assay type: biochemical
Experimental: as §1, §2

ΔTolC E. coli = system: ΔTolC E. coli; set-up: method as in Jeannot et al. In revision in J Med Chem; conditions: ref Jeannot et al. In revision in J Med Chem; cited from earlier work
[4] = target: E. coli DNA gyrase GyrA mutant EcD87A (Escherichia coli, UniProt P0AES4+P0AES6, D87A); assay: Supercoiling inhibition assay, GyrA EcD87A mutant gyrase; assay type: biochemical
Experimental: as §1, §2

[5] = target: T1, wild-type E. coli DNA gyrase; assay type: biochemical; conditions: purified E. coli DNA gyrase, linear plasmid DNA
Experimental: (§3) A total of 500 ng of relaxed pBR322 plasmid was used as a substrate for each 30 μl reaction.

[6] = target: T2, Escherichia coli wt gyrase (Escherichia coli, UniProt P0AES4+P0AES6); assay type: biochemical; conditions: 8 mM EDTA, no ATP; disappearance of linear double-strand cleavage
Experimental: as §3
Figure 6.

[7] = target: T2, Escherichia coli wt gyrase; assay type: biochemical; conditions: 25°C, presence vs absence of ATP
Experimental: The reactions were carried out either in the presence or absence of ATP for both compounds.
The top panels show the results of cleavage assays with various times allowed for the formation of the cleavage complexes as indicated. The experiment was performed in the presence and the absence of ATP as indicated. […] Approximately 400 ng of A2B2Escherichia coli wt gyrase was used in each assay.

Structure (SMILES)	IC50 [1] [µM]	Resistance of EcS83L mutant enzyme in supercoiling inhibition [1]	IC50 [2] [µM]	Increase in supercoiling IC50 with EcS83L mutant compared to wt ([1]; EcS83L vs wild-type) [fold]	IC50 [3] [µM]	Antibacterial activity ranking on ΔTolC E. coli (ΔTolC E. coli)	IC50 [4] [µM]	Level of double-stranded cleavage induced [5]	Resealing of stabilized cleavage by EDTA [6]	Effect of ATP on rate of appearance of linear DNA (cleavage) [7]	Resistance of EcD82N mutant enzyme in supercoiling inhibition ([3]; EcD82N compared to wt)	Resistance of EcD87A mutant enzyme in supercoiling inhibition ([4]; EcD87A compared to wt)
O=C(Cc1ccccc1)Nc1ccc(-c2cn(-c3ccc(O)cc3)c(=O)c3nccn23)cc1 [b1, N-{4-[7-(4-hydroxyphenyl)-8-oxo-7,8-dihydroimidazo[1,2-a]pyrazin-5-yl]phenyl}-2-phenylacetamide]	1	improved activity toward the EcS83L mutant enzyme compared to the wt	2.6									
Cn1cc(-c2ccc(NC(=O)Cc3ccc(Cl)cc3)cc2)n2ccnc2c1=O [b2]	11	less active against EcS83L	5.2									
N[C@H]1CCN(c2cc3c(cc2F)n2ccnc2c(=O)n3C2CC2)C1 [t1]	3.7		0.5	~7	9.4	most active tricyclic IPY	0.5	comparable to those obtained with ciprofloxacin	slower	greatly stimulated		
N[C@H]1CCN(c2cc3c(cc2F)n2ncnc2c(=O)n3C2CC2)C1 [t2]	9.5	partial resistance	1.7		4 to 20		1.7				high resistance	low to no resistance
